How the values were obtained:
[1] = deposition in drilled holes; NaF 0.25%, theobromine 200 mg/L
Experimental: (§1) Isolated human teeth were scratched with a diamond scribe on the enamel surface. Each tooth was then etched for 15 seconds in 0.1 M HCl, rinsed with distilled water, then exposed for 15 seconds to a 0.1 M oxalic acid solution, and then rinsed once more with distilled water. […] The pH was adjusted to 7.4-7.6, after which a 0.2 M CaCl2 solution was added with stirring (the solution turns immediately turbid from Ca-phosphate precipitation). The pH was checked and adjusted immediately to between 7.4 and 7.6, as required. […] A volume ratio of about 3:5 Na2HPO4 solution-to-CaCl2 solution was used to avoid any excess of either Ca or P. The teeth were so incubated at room temperature for about 90 minutes, after which they were removed from solution, carefully rinsed several times with distilled water, and then dried in a desiccator for 24 hours. After drying, the teeth were carbon-coated for viewing via scanning electron microscopy (SEM).
Using a dental drill, holes were drilled into the enamel surfaces of isolated human teeth, with each tooth receiving three holes in three separate locations. […] The teeth were visualized via SEM, as in EXAMPLE 4, and the amount of calcium phosphate deposition measured for each experimental condition.

[2] = Scratched human teeth, SEM comparison of theobromine and NaF; settings: 90 minutes incubation; NaF 0.25%, theobromine 200 mg/L
Experimental: as §1

[F-].[Na+] [NaF, sodium fluoride]
Calcium Phosphate (μm) ± S.D. [1]: 70 ± 8.8 μm | appearance of diamond-scribe scratch in SEM [2]: partly-filled

Reference: patent US9610235B2, “Methods and compositions to improve mechanical resistance of teeth” (THEOCORP HOLDING CO., LLC, priority 2010, dated 2017)
